The target of experiment [1] is T1, Polyadenylate-binding protein 1 (Homo sapiens, UniProt P11940). The experiment can be described thus: PABP1 MLLE–PAM2 interaction inhibitors, dose response, miRNA deadenylation inhibitor project, biochemical, fluorescence polarization, Cy5-PAM2 peptide, secondary (AID 602260). Particulars: read-out: IC50_Mean. The experiment is classed as functional. For orientation: Fluorescence polarisation rises when a labelled molecule tumbles more slowly, as on binding a larger partner.

For experiment [2], the target named is T1, Polyadenylate-binding protein 1. The experiment can be described thus: PABP1 MLLE–PAM2 binding inhibitor potency, dose response, biochemical, fluorescence polarization, FITC-PAM2 peptide (AID 602259). In kind it is functional. The settings on record: read-out: IC50_Mean.
Experiment [3] can be described thus: ZM109 Env clade C HIV-1 fusion inhibitors, dose response, HeLa effector, CEM target cells, luciferase, cherry-pick (AID 652058). In kind it is functional, cell-based.
A short description of experiment [4]: inhibitors of clade B AD8 Env fusion, dose response, cell-based, cherry-pick (AID 652062).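 Note: luciferase signal from cell-cell fusion driven by HIV-1 clade B AD8 Env; potency is for inhibitors of fusion seen as a drop in luminescence.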 The experiment is classed as functional.
A short description of experiment [5]: inhibitors of HIV Env-driven cell fusion, dose response, cherry-pick (AID 652057). The experiment is classed as functional, cell-based.
Experiment [6] in a line: off-target signal loss in HeLa-CEM21 co-culture – HeLa F-luc CTL cells, cherry-picked, counter-screen for HIV-1 Env fusion inhibitor project, dose response (AID 652040).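 Note: potency for signal decrease marking cytotoxic or nonspecific inhibition.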 The experiment is classed as functional, cell-based.
The target of experiment [7] is Induced myeloid leukemia cell differentiation protein Mcl-1 (Homo sapiens, UniProt Q07820). The experiment is classed as functional.
Experiment [8] concerns the target T2, High affinity choline transporter 1 (Homo sapiens, UniProt Q9GZV3).
T2 sequence (Q9GZV3 whole entry): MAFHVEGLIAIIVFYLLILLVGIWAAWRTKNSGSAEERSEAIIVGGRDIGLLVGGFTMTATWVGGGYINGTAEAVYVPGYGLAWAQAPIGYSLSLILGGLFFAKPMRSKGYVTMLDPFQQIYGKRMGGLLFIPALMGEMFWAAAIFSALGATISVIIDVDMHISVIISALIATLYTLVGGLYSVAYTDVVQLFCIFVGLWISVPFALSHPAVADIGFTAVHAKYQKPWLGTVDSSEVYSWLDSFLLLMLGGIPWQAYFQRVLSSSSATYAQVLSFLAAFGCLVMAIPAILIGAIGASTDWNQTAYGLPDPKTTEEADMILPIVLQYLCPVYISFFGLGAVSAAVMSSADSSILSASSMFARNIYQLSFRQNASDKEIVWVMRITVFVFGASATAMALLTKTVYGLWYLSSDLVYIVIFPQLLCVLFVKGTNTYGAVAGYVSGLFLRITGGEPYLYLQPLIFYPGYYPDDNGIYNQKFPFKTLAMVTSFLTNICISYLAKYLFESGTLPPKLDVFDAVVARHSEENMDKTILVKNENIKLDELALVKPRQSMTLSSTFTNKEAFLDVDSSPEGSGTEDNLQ
The experiment can be described thus: CHT inhibitors, dose response, cell-based, 5-point CRC, membrane potential dye (AID 504840). In kind it is functional.

Experiment [9] deals with T3, Carboxy-terminal domain RNA polymerase II polypeptide A small phosphatase 1 (Homo sapiens, UniProt Q9GZU7).
T3 sequence (Q9GZU7 whole entry): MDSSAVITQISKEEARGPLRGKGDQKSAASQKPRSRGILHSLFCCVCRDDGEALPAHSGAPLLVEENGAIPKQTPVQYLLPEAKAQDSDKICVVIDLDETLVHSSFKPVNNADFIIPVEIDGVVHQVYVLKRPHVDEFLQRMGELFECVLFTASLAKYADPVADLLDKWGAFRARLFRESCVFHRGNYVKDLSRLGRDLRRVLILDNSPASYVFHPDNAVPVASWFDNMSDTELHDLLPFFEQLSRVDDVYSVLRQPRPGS
The experiment is described as follows: inhibitors of CTDSP1, concentration-response testing, biochemical assay, absorbance-based, actives from ultra-high-throughput screening (AID 540297). In kind it is functional.

Experiment [10] deals with P388. The experiment is described as follows: cells. The experiment is classed as functional. The settings on record: Mus musculus.
Experiment [11] relates to P388/ADR. The experiment is described as follows: cells. In kind it is functional. Particulars: Mus musculus.
Experiment [12] concerns SN12K1. The experiment can be described thus: cells. The experiment is classed as functional. Particulars: Homo sapiens.
The target in experiment [13] is T4, Histone-lysine N-methyltransferase NSD2 (Homo sapiens, UniProt O96028).
T4 sequence (O96028 whole entry): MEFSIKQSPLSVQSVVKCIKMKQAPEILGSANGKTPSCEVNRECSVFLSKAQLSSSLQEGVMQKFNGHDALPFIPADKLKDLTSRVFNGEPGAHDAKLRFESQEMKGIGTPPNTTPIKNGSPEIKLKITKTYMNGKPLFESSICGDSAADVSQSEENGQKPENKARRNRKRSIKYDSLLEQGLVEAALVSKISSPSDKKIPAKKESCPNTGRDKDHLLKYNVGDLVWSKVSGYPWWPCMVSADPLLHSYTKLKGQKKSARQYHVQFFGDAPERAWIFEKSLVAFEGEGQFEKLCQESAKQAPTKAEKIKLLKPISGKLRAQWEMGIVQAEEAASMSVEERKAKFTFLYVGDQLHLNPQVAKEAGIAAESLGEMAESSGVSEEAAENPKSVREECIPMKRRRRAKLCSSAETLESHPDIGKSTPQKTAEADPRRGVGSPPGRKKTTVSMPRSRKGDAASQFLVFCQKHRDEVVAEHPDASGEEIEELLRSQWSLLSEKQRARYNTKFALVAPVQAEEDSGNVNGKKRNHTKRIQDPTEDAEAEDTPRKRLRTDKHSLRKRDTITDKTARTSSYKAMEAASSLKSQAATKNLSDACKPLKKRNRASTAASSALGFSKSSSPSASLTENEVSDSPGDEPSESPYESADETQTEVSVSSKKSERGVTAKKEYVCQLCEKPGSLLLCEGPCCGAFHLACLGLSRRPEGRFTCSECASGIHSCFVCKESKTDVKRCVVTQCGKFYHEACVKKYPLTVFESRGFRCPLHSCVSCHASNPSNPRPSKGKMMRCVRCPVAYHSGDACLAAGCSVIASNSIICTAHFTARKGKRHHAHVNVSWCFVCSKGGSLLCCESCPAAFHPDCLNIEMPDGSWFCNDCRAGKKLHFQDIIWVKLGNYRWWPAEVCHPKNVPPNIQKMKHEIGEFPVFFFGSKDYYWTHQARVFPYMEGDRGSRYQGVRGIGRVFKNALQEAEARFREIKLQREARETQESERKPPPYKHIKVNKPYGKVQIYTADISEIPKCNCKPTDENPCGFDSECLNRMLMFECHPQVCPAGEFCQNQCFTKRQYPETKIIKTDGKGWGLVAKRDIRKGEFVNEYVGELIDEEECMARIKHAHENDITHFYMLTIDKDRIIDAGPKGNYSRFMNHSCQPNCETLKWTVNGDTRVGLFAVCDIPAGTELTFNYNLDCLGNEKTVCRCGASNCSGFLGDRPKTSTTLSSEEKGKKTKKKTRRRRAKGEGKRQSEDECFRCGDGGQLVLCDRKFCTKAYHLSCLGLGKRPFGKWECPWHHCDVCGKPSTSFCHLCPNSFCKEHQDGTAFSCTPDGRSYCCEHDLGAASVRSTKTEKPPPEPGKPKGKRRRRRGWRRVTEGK
The experiment is classed as biochemical.

The term AC50 denotes the concentration at which the activity in the assay is half-maximal. Usually GI50 stands for the concentration that inhibits growth by half.

Activity calls are given as the source filed them. Bounds are passed on as bounds.

T1 sequence (P11940 whole entry): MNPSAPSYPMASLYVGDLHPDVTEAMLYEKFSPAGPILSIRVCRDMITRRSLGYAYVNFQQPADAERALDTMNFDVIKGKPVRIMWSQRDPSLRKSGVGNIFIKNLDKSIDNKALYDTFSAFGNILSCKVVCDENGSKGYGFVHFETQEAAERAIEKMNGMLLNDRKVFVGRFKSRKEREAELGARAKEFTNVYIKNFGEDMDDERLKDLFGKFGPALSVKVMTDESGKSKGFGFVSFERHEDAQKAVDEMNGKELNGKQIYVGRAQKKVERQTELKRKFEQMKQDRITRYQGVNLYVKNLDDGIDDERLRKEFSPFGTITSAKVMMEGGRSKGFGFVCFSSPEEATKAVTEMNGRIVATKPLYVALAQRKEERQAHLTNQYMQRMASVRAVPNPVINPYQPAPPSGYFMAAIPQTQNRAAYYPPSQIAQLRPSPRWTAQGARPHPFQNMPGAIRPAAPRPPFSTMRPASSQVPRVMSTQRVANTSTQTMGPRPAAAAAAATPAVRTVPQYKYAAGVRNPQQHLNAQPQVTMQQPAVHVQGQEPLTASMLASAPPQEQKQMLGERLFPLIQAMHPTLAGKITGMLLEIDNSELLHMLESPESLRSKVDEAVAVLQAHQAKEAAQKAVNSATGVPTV
Chain of Induced myeloid leukemia cell differentiation protein Mcl-1 (Q07820 whole entry): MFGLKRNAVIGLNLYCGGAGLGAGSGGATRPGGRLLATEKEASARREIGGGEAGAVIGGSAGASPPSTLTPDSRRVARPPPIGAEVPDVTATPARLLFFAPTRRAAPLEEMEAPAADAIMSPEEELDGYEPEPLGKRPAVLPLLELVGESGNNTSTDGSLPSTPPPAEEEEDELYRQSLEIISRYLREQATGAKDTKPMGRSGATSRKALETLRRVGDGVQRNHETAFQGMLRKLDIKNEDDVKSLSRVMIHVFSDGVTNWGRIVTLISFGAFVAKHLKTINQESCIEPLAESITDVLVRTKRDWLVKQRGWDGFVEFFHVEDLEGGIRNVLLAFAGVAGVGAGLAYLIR

As for `CCOCC(=O)Nc1nnc(COc2ccc(Cl)cc2)s1`, the IC50 in [1] and in experiment [2] was > 66 µM (inactive) throughout.
For `CC(C)(C)N1C(=O)[C@H]2[C@@H](c3ccc(Br)cc3)N3C(=O)N(c4cccc(Cl)c4)C(=O)[C@@]3(C)[C@H]2C1=O`, the AC50 in experiment [3] was 0.542 µM (active); in experiment [4] it was 3.2 µM (active); in experiment [5], 0.464 µM (active); in [6], 0.843 µM (active).
For `CCCn1c(N)c(C(=S)NC(=O)C2CC2)c(=O)n(C)c1=O`, the IC50 in experiment [1] and in experiment [2] was > 66 µM (inactive) each time.
Regarding `Cc1ccc(-c2cc(C(=O)NCCCn3ccnc3)c3cc(Br)ccc3n2)o1`, the values for the IC50 in experiment [7] and in experiment [8] were 3.07 µM (not active) and 11.5 µM (active), respectively.
Turning to `CCOP(=O)(Cc1cc(C(C)=O)c(C)o1)OCC`, the IC50 in [1] and in experiment [2] was > 66 µM (inactive) in each case.
As to `CCCCNC(=O)c1sc(=S)n(-c2ccccc2OC)c1N`, the IC50 in [1] and in experiment [2] was > 66 µM (inactive) throughout.
With `Cn1c(O)nc2cc3ccccc3cc21`, the AC50 is 53.3 µM (active) in experiment [3], 4.99 µM (active) in [4], 1.46 µM (active) in [5] and 0.717 µM (active) in experiment [6].
On to `N#C/C(=C/c1ccc(-c2ccc(C(=O)O)c(Cl)c2)o1)C(=O)NCC1CCCO1` (stereo unspecified), for which, in [9], the IC50 is 33.2 µM (active).
As to `O=C(CCN1C(=O)/C(=C/c2ccc(F)cc2)SC1=S)Nc1cc([N+](=O)[O-])ccc1O`, the IC50 in experiment [9] was 7.68 µM (active).
For `COc1ccc(C(=O)CCN2CCC(C)CC2)cc1`, the IC50 in experiment [1] and in [2] was > 66 µM (inactive) throughout.
Consider `CC(=O)c1cccc(NC(=O)COc2cc3oc(=O)c(CC(C)O)c(C)c3cc2Cl)c1` (stereo unspecified), for which the IC50 in experiment [9] was 12.5 µM (active).
For the molecule `CCN1C(=O)[C@H]2[C@H]3CN=C(SCc4ccc(Cl)cc4)N3[C@@](CC)(C(=O)OC)[C@H]2C1=O`, the AC50 was 3.37 µM (active) in experiment [3], 5.43 µM (active) in experiment [4], 3.34 µM (active) in experiment [5] and 3.59 µM (active) in [6].
With `CCn1c(C)cc(C)[n+]1-c1ccccc1`, the IC50 in experiment [9] is 13.2 µM (active).
For `CCCNC(=O)C(C)C1CCC2(C)C=CC(=O)C(C)=C2C1O` (stereo unspecified), the GI50 in experiment [10], in experiment [11] and in experiment [12] was > 100 µM (inactive) each time.
For `C[C@H]1COC(c2ccccn2)=N1`, the GI50 in experiment [10], in experiment [11] and in experiment [12] was > 100 µM (inactive) throughout.
For `CC12CCC3C(CCC4=CC(O)CCC43C=O)C1(O)CCC2c1ccc(=O)oc1` (stereo unspecified), the GI50 in experiment [10] was < 0.1 µM (active); in experiment [11], 0.21 µM (active); in experiment [12], 0.05 µM (active).
Take `CC1(C)N=C(N)N=C(N)N1c1ccc(CCCCc2ccc(S(=O)(=O)F)cc2Cl)c(Cl)c1`: the concentration for 50% growth inhibition (GI50) is 0.05 µM (active) in [10], 0.369 µM (active) in experiment [11] and 0.979 µM (active) in experiment [12].
The like results for `CCNCCCCNCC` were, in that order, 1560 µM (inactive), > 3750 µM (inactive) and > 3750 µM (inactive).
The like results for `COc1ccc2nc3c(C(=O)NCCN(C)C)cccc3cc2c1` were, in that order, 0.305 µM (active), 0.652 µM (active) and 0.944 µM (active).
For `NC(Cc1cc(I)c(O)c(I)c1)C(=O)O` (stereo unspecified), the values for the GI50 in [10], in experiment [11] and in [12] were 21.6 µM (inactive), 21.3 µM (inactive) and 169 µM (inactive), respectively.
Regarding `NC(=O)c1[nH]nc(C2OC(CO)C(O)C2O)c1O` (stereo unspecified), the concentration for 50% growth inhibition (GI50) is 0.5 µM (active) in [10], 0.5 µM (active) in experiment [11] and 0.561 µM (active) in [12].
In the case of `[N-]=[N+]=CC(=O)CCC(NC(=O)C(CCC(=O)C=[N+]=[N-])NC(=O)CCC(N)C(=O)O)C(=O)O` (stereo unspecified), the GI50 in [10], in experiment [11] and in experiment [12] was > 100 µM (inactive) in each case.
Regarding `CC[C@@]1(C(=O)OC)N[C@H](CN(C)C(=O)Nc2ccc(C(F)(F)F)cc2)[C@@H]2C(=O)N(Cc3ccccc3)C(=O)[C@@H]21`, the AC50 in experiment [3] was 0.604 µM (active); in [4], 1.21 µM (active); in experiment [5], 0.336 µM (active); in [6] it was 0.74 µM (active).
As for `C[C@H]1CN([C@@H](C)CO)C(=O)Cc2cc(NC(=O)Nc3ccccc3)ccc2O[C@H]1CN(C)S(=O)(=O)c1ccccc1`, the half-maximal activity concentration (AC50) was 4.49 µM (active) in experiment [3], 5.2 µM (active) in [4] and 5.16 µM (active) in experiment [5].
As for `CN(C)c1cccc2c(S(=O)(=O)Nc3ccccn3)cccc12`, the half-maximal activity concentration (AC50) in experiment [13] was 15.3 µM (active).
For `CCN(CC)CCNC(=O)c1c(C)[nH]c(/C=C2\C(=O)Nc3ccc(F)cc32)c1C`, in experiment [13], the AC50 is > 20 µM (inactive).
For `CCCCC1NC(C(=O)O)CS1` (stereo unspecified), the IC50 in experiment [1] and in experiment [2] was > 66 µM (inactive) throughout.

Values taken from ChEMBL document CHEMBL1201862, “PubChem BioAssay data set” (2004).
